Measurements from patent US20210380946A1 (priority 2018, published 2021).

Assay: Clinical trial: neutropenia, thrombocytopenia and toxicity post-melphalan reduced-intensity conditioning
Details: for Days ANC >500 (Absolute Neutrophil Count) / Days Platelets <50: 140 mg/m^2 melphalan single dose

N[C@@H](Cc1ccc(N(CCCl)CCCl)cc1)C(=O)O [Melphalan, melphalan]
Days ANC >500 (Absolute Neutrophil Count) (Subject 1): 9 days | Days Platelets <50 (Subject 1): 13 days | Days ANC >500 (Absolute Neutrophil Count) (Subject 2): 7 days | Days Platelets <50 (Subject 2): 8 days | chemotherapy related toxicity: cytopenia (both subjects): temporary cytopenia | chemotherapy related toxicity: transaminases (both subjects): temporary mild evelvations in transaminases | chemotherapy related toxicity: mucositis (both subjects, follow-up 1 year and 6 months): 2-3 grade
